Experimental data from ChEMBL document CHEMBL1122822 (1985).

Tests used:
MCF7 [1] = experiment: Effect of compound on the growth of MCF-7 cells at a concentration of,10 e-6 M, percentage of control value being 63; assay type: functional, Homo sapiens
MCF7 [2] = experiment: Effect of compound with 10e-8 M estradiol on the growth of MCF-7 cells at a concentration 10 e-7 M, percentage of control value being 91; assay type: functional, Homo sapiens
MCF7 [3] = experiment: Effect on the growth of MCF-7 cells at a concentration of,10 e-7 M, percentage of control value being 84; assay type: functional, Homo sapiens
MCF7 [4] = experiment: Effect of compound with 10e-8 M estradiol on the growth of MCF-7 cells at a concentration of,10 e-6 M, percentage of control value being 90; assay type: functional, Homo sapiens
[5] = target: Estrogen receptor (Rattus norvegicus) (UniProt P06211+Q62986)
Description: In vitro relative binding affinity for rat uterine estrogen receptor compared to [3H]estradiol

MCF7 [6] = experiment: Effect on the growth of MCF-7 cells at a concentration of,10 e-7 M, percentage of control value being 80; assay type: functional, Homo sapiens
MCF7 [7] = experiment: Effect of compound with 10e-8 M estradiol on the growth of MCF-7 cells at a concentration 10 e-7 M, percentage of control value being 13; assay type: functional, Homo sapiens
MCF7 [8] = experiment: Effect of compound with 10e-8 M estradiol on the growth of MCF-7 cells at a concentration 10 e-7 M, percentage of control value being 90; assay type: functional, Homo sapiens
MCF7 [9] = experiment: Effect of compound with 10e-8 M estradiol on the growth of MCF-7 cells at a concentration of 10 e-6 M, percentage of control value being 68; assay type: functional, Homo sapiens
MCF7 [10] = experiment: Effect of compound on the growth of MCF-7 cells at a concentration of 10 e-6 M, percentage of control value being 35; assay type: functional, Homo sapiens
MCF7 [11] = experiment: Effect on the growth of MCF-7 cells at a concentration of 10 e-7 M, percentage of control value being 67; assay type: functional, Homo sapiens
MCF7 [12] = experiment: Effect on the growth of MCF-7 cells at a concentration of,10 e-7 M, percentage of control value being 20; assay type: functional, Homo sapiens
MCF7 [13] = experiment: Effect of compound with 10e-8 M estradiol on the growth of MCF-7 cells at a concentration 10 e-7 M, percentage of control value being 12; assay type: functional, Homo sapiens
MCF7 [14] = experiment: Effect of compound on the growth of MCF-7 cells at a concentration of,10 e-6 M, percentage of control value being 85; assay type: functional, Homo sapiens
MCF7 [15] = experiment: Effect of compound with 10e-8 M estradiol on the growth of MCF-7 cells at a concentration of,10 e-6 M, percentage of control value being 74; assay type: functional, Homo sapiens
MCF7 [16] = experiment: Effect on the growth of MCF-7 cells at a concentration of,10 e-7 M, percentage of control value being 87; assay type: functional, Homo sapiens
MCF7 [17] = experiment: Effect of compound with 10e-8 M estradiol on the growth of MCF-7 cells at a concentration 10 e-7 M, percentage of control value being 77; assay type: functional, Homo sapiens
MCF7 [18] = experiment: Effect of compound on the growth of MCF-7 cells at a concentration of 10 e-6 M Experiment 2, percentage of control value being 13; assay type: functional, Homo sapiens
MCF7 [19] = experiment: Effect on the growth of MCF-7 cells at a concentration of 10 e-7 M, percentage of control value being 36; assay type: functional, Homo sapiens
MCF7 [20] = experiment: Effect of compound with 10e-8 M estradiol on the growth of MCF-7 cells at a concentration 10 e-7 M, percentage of control value being 85; assay type: functional, Homo sapiens
MCF7 [21] = experiment: Effect of compound on the growth of MCF-7 cells at a concentration of 10 e-7 M Experiment 2, percentage of control value being 15; assay type: functional, Homo sapiens
MCF7 [22] = experiment: Effect of compound with 10e-8 M estradiol on the growth of MCF-7 cells at a concentration of 10 e-6 M, percentage of control value being 32; assay type: functional, Homo sapiens
MCF7 [23] = experiment: Effect of compound on the growth of MCF-7 cells at a concentration of 10 e-6 M, percentage of control value being 23; assay type: functional, Homo sapiens

SMILES: CC/C(=C(\c1ccccc1)c1ccc(OCCN(C)C)cc1)c1ccccc1 [TAMOXIFEN]
- DNA (MCF7 [1]): 10.6 µg
- DNA (MCF7 [2]): 15.2 µg
- DNA (MCF7 [3]): 14 µg
- DNA (MCF7 [4]): 15.1 µg

SMILES: CC/C(=C(\c1ccccc1)c1ccc(OCCN(C)C)cc1)c1cccc(O)c1
- IC50 [5]: 30 nM

SMILES: CC/C(=C(/c1ccc(OCCN(C)C)cc1)c1ccc(O)cc1O)c1ccccc1
- DNA (MCF7 [6]): 6.6 µg
- DNA (MCF7 [7]): 1.1 µg

SMILES: CC/C(=C(/c1ccc(OCCN(C)C)cc1)c1cccc(O)c1)c1ccccc1 [DROLOXIFENE]
- DNA (MCF7 [8]): 15 µg
- DNA (MCF7 [9]): 11.3 µg
- DNA (MCF7 [10]): 5.9 µg
- DNA (MCF7 [11]): 11.2 µg

SMILES: CC/C(=C(/c1ccc(OCCN(C)C)cc1)c1ccc(O)cc1C)c1ccccc1
- DNA (MCF7 [12]): 1.6 µg
- DNA (MCF7 [13]): 1 µg

SMILES: CC/C(=C(/c1ccc(OCCN(C)C)cc1)c1ccccc1O)c1ccccc1
- DNA (MCF7 [14]): 14.2 µg
- DNA (MCF7 [15]): 12.4 µg
- DNA (MCF7 [16]): 14.6 µg
- DNA (MCF7 [17]): 12.8 µg

SMILES: CCC(=C(c1ccc(O)cc1)c1ccc(OCCN(C)C)cc1)c1ccccc1
- DNA (MCF7 [18]): 1.1 µg
- DNA (MCF7 [19]): 6 µg
- DNA (MCF7 [20]): 14.2 µg
- DNA (MCF7 [21]): 1.2 µg
- DNA (MCF7 [22]): 5.4 µg
- DNA (MCF7 [23]): 3.8 µg
